Measurements taken from PMC9158366, “The inhibition of tamoxifen on UGT2B gene expression and enzyme activity in rat liver contribute to the estrogen homeostasis dysregulation” (BMC Pharmacology & Toxicology, 2022).

Target: T1, UGT2B7 (Homo sapiens, UniProt P16662)
T1 sequence (P16662 24-529): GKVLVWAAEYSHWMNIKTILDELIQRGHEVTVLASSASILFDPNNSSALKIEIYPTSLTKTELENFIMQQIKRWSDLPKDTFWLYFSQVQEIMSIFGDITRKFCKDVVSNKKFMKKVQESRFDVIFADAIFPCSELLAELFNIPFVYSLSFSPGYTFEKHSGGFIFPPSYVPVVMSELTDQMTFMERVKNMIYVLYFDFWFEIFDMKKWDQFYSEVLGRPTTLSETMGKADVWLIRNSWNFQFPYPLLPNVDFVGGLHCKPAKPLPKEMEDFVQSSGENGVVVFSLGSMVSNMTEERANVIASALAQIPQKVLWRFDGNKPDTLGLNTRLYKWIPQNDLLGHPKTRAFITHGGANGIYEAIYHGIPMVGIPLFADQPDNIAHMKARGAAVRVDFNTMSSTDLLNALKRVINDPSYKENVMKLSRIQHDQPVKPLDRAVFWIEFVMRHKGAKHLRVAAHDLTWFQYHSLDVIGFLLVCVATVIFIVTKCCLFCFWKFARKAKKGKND
Assay: inhibition of naloxone glucuronidation in human liver microsomes, HPLC
Assay type: biochemical

**Q.** How did the Ki turn out when `CC/C(=C(\c1ccccc1)c1ccc(OCCN(C)C)cc1)c1ccccc1` [tamoxifen] was run?
**A.** 37.7 µM
